Entries after “also recorded” stand apart in the source; their conditions may differ. Read-outs that look alike come from different tables or passages of the source.
Experiments:
[1] = test system: H1155 cells transduced with DCAF15-3xFLAG cDNA; assay: Cell viability assay, DCAF15 overexpression; format: cell-based, human; conditions: H1155 cells expressing higher than normal levels of DCAF15
[2] = test system: tumors derived from parental HCT-116 cells; assay: Mouse xenograft model, parental HCT-116; format: in vivo, Nod-Scid IL-2Rγ KO mice
Protocol: All animal work was approved by the Institutional Animal Care and Use Committee at UTSW. UTSW is accredited by the Association for Assessment and Accreditation of Laboratory Animal Care International (AAALAC). Animals were obtained from the UTSW Breeding Core Facility. Nod-Scid IL-2Rγ KO mice were implanted with 5 million parental HCT-116 cells or HCT-116 cells expressing RBM39 G268V in a volume of 0.1 ml in the left flank. Tumor volumes were measured every 2-4 days with calipers. Volume is calculated as (L*W^2)*3.14)/6.

[3] = test system: pre-mRNA splicing in HCT-116 cells; assay: RNA-seq analysis of splicing changes, parental HCT-116; format: cell-based, human; conditions: 2 μM indisulam
Description: RNAs were extracted using Quick-RNA MiniPrep kit (Zymo Research). After cleaning up genomic DNA contaminant with Turbo DNase (Life Technologies) and rRNA depletion, strand-specific cDNA libraries were generated using the TruSeq Stranded mRNA Sample Prep Kit (IIlumina) and were subjected to high throughput sequencing using
HiSeq2500 platform (Illumina) with 100-bp single-end reads. NGS QC Toolkit (v2.3.1) (49) was used to check the sequencing quality, and high-quality reads were aligned by TopHat (v2.0.8) (50) to human reference genome (hg19) along with the gene annotation data downloaded from Illumina's iGenomes (support.illumina.com/sequencing/sequencing_software/igenome.ilmn). The insert-size metrics required in TopHat execution and the correctness of strand specificity were estimated by mapping reads to human transcript sequences using Bowtie (v2.1.0) (51) and Picard-tools (v1.99) (picard.sourceforge.net). The htseq-count script distributed with the HTSeq Python package (0.6.1) (pypi.python.org/pypi/HTSeq) was employed for counting reads in genes considering the coding strands. Source data for RNA sequencing data is available under NCBI SRA accession SRP096666.
For the stringent detection of differential skipped exons and retained introns, a custom program called SpliceFisher was developed and it is downloadable at github.com/jiwoongbio/SpliceFisher. Exonic and intronic regions were defined as annotated in the reference genome. To estimate differential exon skipping events, the numbers of exon-junction reads (panels a and b in FIG. 16) and exon-skipping reads (panel c in FIG. 16) observed in a sample were compared to the numbers observed in another sample. […] Additionally, the number of reads mapped to the target region (panel d in FIG. 16) and other exonic regions of the gene (panel e in FIG. 16) were also compared between samples. The read counts were evaluated by multiple Fisher's exact tests in three two-by-two tables using R and then the p-values were adjusted using FDR by each comparison type. Differential alternative splicing events were identified with all three adjusted p-values less than 0.01. The differential alternative splice sites and mutually exclusive exons were additionally detected by a similar method using the numbers of splicing reads supporting each junction.

RBM39 mRNA = assay: qPCR quantification of RBM39 mRNA; format: cell-based, human; conditions: HCT-116 cells after indisulam treatment
Protocol: RNAs isolated from indisulam or siRNA treated cells were first treated with Turbo DNase (Life Technologies) to remove contaminating genomic DNA. After RNA cleanup with Quick-RNA MiniPrep kit (Zymo Research), 500 ng of total RNAs was converted into cDNAs with Multiscribe reverse transcriptase (Life Technologies). Exon skipping in TRIM27 was visualized by PCR amplification with 5′-[…]-3′ (SEQ ID NO: 3) and 5′-[…]-3′ (SEQ ID NO: 4) from cDNAs. […] Relative RNA levels were calculated based on 2^−ct method using Cyclophilin mRNA for normalization. The following primers were used for quantification of mRNA levels: […]
For measurement of RBM39 mRNA levels, the following primers were used: […]

H2250 = assay: IC50 assay, NSCLC cell lines (Cell Titer Glo, total ATP); format: cell-based; conditions: Homo sapiens
Protocol: (§1) Cells were plated at ˜15% confluence in a media comprising 5% concentration of fetal bovine serum supplemented with RPMI, which included 2 mM L-Glutamine in a 96 well dish. […] Following three days of incubation in a 5% CO2 incubator, the total ATP in each well was quantified using Cell Titer Glo (Promega). […] The solid lines represent the medians.

H1944 = assay: as above; format: cell-based; conditions: Homo sapiens
Protocol: as §1

H1573 = assay: as above; format: cell-based; conditions: Homo sapiens, NCI-H1573, read-out: Indisulam IC50 (log 10) (converted), U2AF1 WT
Protocol: as §1

H1819 = assay: as above; format: cell-based; conditions: Homo sapiens
Protocol: as §1

HCC78 = assay: as above; format: cell-based; conditions: Homo sapiens
Protocol: as §1

H1975 = assay: as above; format: cell-based; conditions: Homo sapiens
Protocol: as §1

H2170 = assay: as above; format: cell-based; conditions: Homo sapiens
Protocol: as §1

H2347 = assay: as above; format: cell-based; conditions: Homo sapiens
Protocol: as §1

WI38 = assay: as above; format: cell-based; conditions: Homo sapiens
Protocol: as §1

H1770 = assay: as above; format: cell-based; conditions: Homo sapiens
Protocol: as §1

## NS(=O)(=O)c1ccc(S(=O)(=O)Nc2cccc3c(Cl)c[nH]c23)cc1 [Indisulam, indisulam]
[1]
  sensitivity vs mock treated cells: more sensitive
[2]; 25 mg/kg indisulam intravenous once a day for eight days
  tumor response: complete regression; also recorded: regress
[2]; parental HCT-116 xenograft, 25 mg/kg once a day for eight days
  Average maximal weight loss from start of therapy to 1 day post final dose: 5.2%
[3]; 6 hours
  exon skipping events: 327
  introns retained: 107
[3]; 12 hours
  exon skipping events: 837
  introns retained: 303
RBM39 mRNA
  RBM39 mRNA: no dose dependent decrease
H2250; read-out: Indisulam IC50 (log 10) (converted), U2AF1 WT
  IC50: ≥ 500 µM
H2250; read-out: Indisulam IC50, U2AF1 WT
  IC50: 1180 µM
H1944; NCI-H1944, read-out: Indisulam IC50 (log 10) (converted), U2AF1 WT
  IC50: 163 µM
H1944; NCI-H1944, read-out: Indisulam IC50, U2AF1 WT
  IC50: 163 µM
H1573
  IC50: ≥ 500 µM
H1819; NCI-H1819, read-out: Indisulam IC50 (log 10) (converted), U2AF1 WT
  IC50: 9.6 µM
H1819; NCI-H1819, read-out: Indisulam IC50, U2AF1 WT
  IC50: 9.6 µM
HCC78; read-out: Indisulam IC50 (log 10) (converted), U2AF1 S34F
  IC50: 1.15 µM
HCC78; read-out: Indisulam IC50, U2AF1 S34F
  IC50: 1.15 µM
H1975; NCI-H1975, read-out: Indisulam IC50 (log 10) (converted), U2AF1 WT
  IC50: 1.51 µM
H1975; NCI-H1975, read-out: Indisulam IC50, U2AF1 WT
  IC50: 1.51 µM
H2170; NCI-H2170, read-out: Indisulam IC50 (log 10) (converted), U2AF1 WT
  IC50: 29.6 µM
H2170; NCI-H2170, read-out: Indisulam IC50, U2AF1 WT
  IC50: 29.6 µM
H2347; NCI-H2347, read-out: Indisulam IC50 (log 10) (converted), U2AF1 WT
  IC50: 13.5 µM
H2347; NCI-H2347, read-out: Indisulam IC50, U2AF1 WT
  IC50: 13.5 µM
WI38; WI-38, read-out: Indisulam IC50 (log 10) (converted), U2AF1 WT
  IC50: 10 µM
WI38; WI-38, read-out: Indisulam IC50, U2AF1 WT
  IC50: 10 µM
H1770; NCI-H1770, read-out: Indisulam IC50 (log 10) (converted), U2AF1 WT
  IC50: 16.2 µM
H1770; NCI-H1770, read-out: Indisulam IC50, U2AF1 WT
  IC50: 16.2 µM

Reference: patent US20180140578A1, “METHODS AND COMPOSITIONS FOR THE DIAGNOSIS AND SELECTIVE TREATMENT OF CANCER” (Board of Regents of the University of Texas System, priority 2016, published 2018)
